The values below come from PubChem BioAssay AID256 (DTP/NCI, 2004).

In the assay the test system is CD2F1 mice, L1210 leukemia ip, survival T/C. Kind of assay: NCI In Vivo Anticancer Drug Screen. Data for tumor model L1210 Leukemia (intraperitoneal) in CD2F1 (CDF1) mice. The following applies: endpoint: mean survival time, higher = longer survival. The gist of the method: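 Implant tumor; dose compound or vehicle; measure endpoint in both groups; report treated divided by control.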

The mark [1] stands for this setting: dose: 100.0 mg/kg/injection, schedule: Q01DX009 (ip), vehicle: saline with Tween-80.
The mark [2] stands for this setting: dose: 100.0 mg/kg/injection, schedule: Q04DX003 (ip), vehicle: saline with Tween-80.
Where [3] appears, read: dose: 200.0 mg/kg/injection, schedule: Q01DX009 (ip), vehicle: saline with Tween-80.
Where [4] appears, read: dose: 200.0 mg/kg/injection, schedule: Q04DX003 (ip), vehicle: saline with Tween-80.
The mark [5] stands for this setting: dose: 400.0 mg/kg/injection, schedule: Q01DX009 (ip), vehicle: saline with Tween-80.
[6] abbreviates: dose: 400.0 mg/kg/injection, schedule: Q04DX003 (ip), vehicle: saline with Tween-80.
[7] abbreviates: dose: 100.0 mg/kg/injection, schedule: Q01DX001 (ip), vehicle: saline with Tween-80.

Toxic doses and inconclusive results are not listed.

Take `O=c1cc(Cl)c(=O)[nH][nH]1`: the T/C runs as follows: (dose: 100.0 mg/kg/injection, schedule: Q01DX001 (ip), vehicle: other) 104 % of control; under setting [1], 92 % of control; under setting [2], 94 % of control; (dose: 200.0 mg/kg/injection, schedule: Q01DX001 (ip), vehicle: other) 97 % of control; under setting [3], 94 % of control; under setting [4], 94 % of control. The T/C is, setting by setting: (dose: 400.0 mg/kg/injection, schedule: Q01DX001 (ip), vehicle: other) 98 % of control; under setting [5], 97 % of control; under setting [6], 96 % of control.

On to `Cc1ccc2nc3c(nc2c1)-c1cccc2cccc-3c12`, for which the T/C by setting is: under setting [1], 92 % of control; under setting [3], 94 % of control; under setting [5], 106 % of control.

Consider `O=C(O)C(C(=O)O)C1Cc2cccc3cccc1c23` (centres undefined), for which, under setting [7], the T/C was 94 % of control.

In the case of `Cn1cc(C2OC(CO)C(O)C2O)c(=O)[nH]c1=O` (centres undefined), the T/C by setting is: (dose: 12.5 mg/kg/injection, schedule: Q01DX005 (ip), vehicle: water) 97 % of control; (dose: 25.0 mg/kg/injection, schedule: Q01DX005 (ip), vehicle: water) 103 % of control; (dose: 50.0 mg/kg/injection, schedule: Q01DX005 (ip), vehicle: water) 103 % of control; (dose: 100.0 mg/kg/injection, schedule: Q01DX005 (ip), vehicle: water) 100 % of control; (dose: 200.0 mg/kg/injection, schedule: Q01DX005 (ip), vehicle: water) 103 % of control.

On to `NC(=O)c1c(Cl)n(C2OC(CO)C(O)C2O)c2ncnc(N)c12` (centres undefined), for which the T/C was 103 % of control (dose: 1.0 mg/kg/injection, schedule: Q01DX005 (ip), vehicle: distilled water + Tween-80); 101 % of control (dose: 2.0 mg/kg/injection, schedule: Q01DX005 (ip), vehicle: distilled water + Tween-80); 106 % of control (dose: 4.0 mg/kg/injection, schedule: Q01DX005 (ip), vehicle: distilled water + Tween-80); 103 % of control (dose: 8.0 mg/kg/injection, schedule: Q01DX005 (ip), vehicle: distilled water + Tween-80); 114 % of control (dose: 16.0 mg/kg/injection, schedule: Q01DX005 (ip), vehicle: distilled water + Tween-80); 109 % of control (dose: 32.0 mg/kg/injection, schedule: Q01DX005 (ip), vehicle: distilled water + Tween-80).

`Cc1ccccc1NCC#N`: the T/C is 101 % of control (dose: 25.0 mg/kg/injection, schedule: Q01DX009 (ip), vehicle: saline with Tween-80); 97 % of control (dose: 50.0 mg/kg/injection, schedule: Q01DX009 (ip), vehicle: saline with Tween-80); 93 % of control under setting [2].

`CC[n+]1ccc(Nc2ccc(NC(=O)c3ccc(Nc4cc[n+](CC)c5ccc(N)cc45)cc3)cc2)cc1`: the T/C is 109 % of control (dose: 0.25 mg/kg/injection, schedule: Q01DX009 (ip), vehicle: saline); 153 % of control (dose: 0.5 mg/kg/injection, schedule: Q01DX009 (ip), vehicle: water); 154 % of control (dose: 1.0 mg/kg/injection, schedule: Q01DX009 (ip), vehicle: saline); 228 % of control (dose: 1.0 mg/kg/injection, schedule: Q01DX009 (ip), vehicle: water); 243 % of control (dose: 2.0 mg/kg/injection, schedule: Q01DX009 (ip), vehicle: saline); 224 % of control (dose: 2.0 mg/kg/injection, schedule: Q01DX009 (ip), vehicle: water). The T/C (dose: 4.0 mg/kg/injection, schedule: Q01DX009 (ip), vehicle: water) was 115 % of control.

On to `Nc1cccc2c1C(=O)c1cccc(Cl)c1C2=O`, for which the T/C under setting [1] was 95 % of control, the T/C under setting [3] was 106 % of control and the T/C under setting [5] was 109 % of control.

In the case of `NC(=S)N/N=C/c1ccc(OC(=O)COc2cc(Cl)c(Cl)cc2Cl)cn1`, the T/C by setting is: (dose: 100.0 mg/kg/injection, schedule: Q04DX002 (ip), vehicle: saline with Tween-80) 122 % of control; (dose: 200.0 mg/kg/injection, schedule: Q04DX002 (ip), vehicle: saline with Tween-80) 114 % of control; (dose: 400.0 mg/kg/injection, schedule: Q04DX002 (ip), vehicle: saline with Tween-80) 122 % of control.

Turning to `O=S(=O)(Nc1cccc(NS(=O)(=O)c2ccccc2)n1)c1ccccc1`, the T/C reads like this: under setting [2], 92 % of control; under setting [4], 102 % of control; under setting [6], 92 % of control.

Regarding `CC[N+]1(CC)N=C([O-])N(C)C1=O`, the T/C is, setting by setting: (dose: 100.0 mg/kg/injection, schedule: Q01DX001 (ip), vehicle: saline) 103 % of control; (dose: 200.0 mg/kg/injection, schedule: Q01DX001 (ip), vehicle: saline) 101 % of control; (dose: 400.0 mg/kg/injection, schedule: Q01DX001 (ip), vehicle: saline) 97 % of control.

Regarding `O=C(O)Cc1ccc(Cl)c(Cl)c1`, the T/C reads like this: (dose: 50.0 mg/kg/injection, schedule: Q04DX003 (ip), vehicle: other) 97 % of control; (dose: 100.0 mg/kg/injection, schedule: Q04DX003 (ip), vehicle: other) 100 % of control; (dose: 200.0 mg/kg/injection, schedule: Q04DX003 (ip), vehicle: other) 96 % of control.

On to `CC1=Nc2cc(Cl)c(Cl)cc2N(C)/C1=C/C1=C(Cl)C(=O)c2cc3c(Cl)ccc(Cl)c3cc2C1=O`, for which the T/C is 94 % of control under setting [2] and 97 % of control under setting [4].

On to `N/C(=N/N=C/c1ccc(O)cc1)N[N+](=O)[O-]`, for which the T/C by setting is: (dose: 100.0 mg/kg/injection, schedule: Q04DX003 (ip), vehicle: Klucel (hydroxypropylcellulose) (HPC)) 92 % of control; (dose: 200.0 mg/kg/injection, schedule: Q04DX003 (ip), vehicle: Klucel (hydroxypropylcellulose) (HPC)) 86 % of control; (dose: 400.0 mg/kg/injection, schedule: Q04DX003 (ip), vehicle: Klucel (hydroxypropylcellulose) (HPC)) 92 % of control.

With `COc1cccc(C2Nc3cc(Cl)ccc3S2)c1O` (centres undefined), the T/C was 98 % of control (dose: 75.0 mg/kg/injection, schedule: Q01DX009 (ip), vehicle: other); 96 % of control (dose: 150.0 mg/kg/injection, schedule: Q01DX009 (ip), vehicle: other); 102 % of control (dose: 300.0 mg/kg/injection, schedule: Q01DX009 (ip), vehicle: other).

For `N=C(N)c1cccc(NC(=O)CCc2ccccc2)c1`, the T/C under setting [7] is 97 % of control; the T/C (dose: 200.0 mg/kg/injection, schedule: Q01DX001 (ip), vehicle: saline with Tween-80) is 93 % of control; the T/C (dose: 400.0 mg/kg/injection, schedule: Q01DX001 (ip), vehicle: saline with Tween-80) is 92 % of control.

Turning to `CCSc1n[nH]c(=O)nc1SC`, the T/C was 98 % of control (dose: 75.0 mg/kg/injection, schedule: Q01DX001 (ip), vehicle: saline); 96 % of control (dose: 150.0 mg/kg/injection, schedule: Q01DX001 (ip), vehicle: saline); 97 % of control (dose: 300.0 mg/kg/injection, schedule: Q01DX001 (ip), vehicle: saline).

`CN(C)N=Nc1cccc(Cl)c1`: the T/C reads like this: (dose: 79.0 mg/kg/injection, schedule: Q01DX009 (ip), vehicle: Klucel (hydroxypropylcellulose) (HPC)) 111 % of control; (dose: 118.0 mg/kg/injection, schedule: Q01DX009 (ip), vehicle: Klucel (hydroxypropylcellulose) (HPC)) 108 % of control; (dose: 177.0 mg/kg/injection, schedule: Q01DX009 (ip), vehicle: Klucel (hydroxypropylcellulose) (HPC)) 123 % of control; (dose: 266.0 mg/kg/injection, schedule: Q01DX009 (ip), vehicle: Klucel (hydroxypropylcellulose) (HPC)) 108 % of control.

For `O=C(C=C(C(F)(F)F)C(F)(F)F)c1ccc(Cl)c2ccccc12`, under setting [2], the T/C is 105 % of control.

As for `COc1ccc(C2OC2C(=O)O)cc1OC` (centres undefined), the T/C under setting [2] is 98 % of control, the T/C under setting [4] was 86 % of control and the T/C under setting [6] was 96 % of control.

Take `COc1ccc2c(C(=O)CCC(=O)O)cccc2c1`: the T/C by setting is: (dose: 100.0 mg/kg/injection, schedule: Q01DX009 (ip), vehicle: saline) 94 % of control; (dose: 200.0 mg/kg/injection, schedule: Q01DX009 (ip), vehicle: saline) 90 % of control; (dose: 400.0 mg/kg/injection, schedule: Q01DX009 (ip), vehicle: saline) 100 % of control.
